Source: ChEMBL document CHEMBL1681708, “The synthesis and structure-activity relationship of pyridazinones as glucan synthase inhibitors” (Bioorg Med Chem Lett, 2011)
pIC50: −log10 of the molar value. Converted amounts (≈) assume the structure as drawn.

Columns and labels:
Beta-1,3-glucan synthase = biological target: T1, Beta-1,3-glucan synthase (Candida albicans, UniProt O13383); test: Inhibition of Candida albicans BWP17 1,3-beta-D-glucan synthase
T1 sequence (O13383 whole entry): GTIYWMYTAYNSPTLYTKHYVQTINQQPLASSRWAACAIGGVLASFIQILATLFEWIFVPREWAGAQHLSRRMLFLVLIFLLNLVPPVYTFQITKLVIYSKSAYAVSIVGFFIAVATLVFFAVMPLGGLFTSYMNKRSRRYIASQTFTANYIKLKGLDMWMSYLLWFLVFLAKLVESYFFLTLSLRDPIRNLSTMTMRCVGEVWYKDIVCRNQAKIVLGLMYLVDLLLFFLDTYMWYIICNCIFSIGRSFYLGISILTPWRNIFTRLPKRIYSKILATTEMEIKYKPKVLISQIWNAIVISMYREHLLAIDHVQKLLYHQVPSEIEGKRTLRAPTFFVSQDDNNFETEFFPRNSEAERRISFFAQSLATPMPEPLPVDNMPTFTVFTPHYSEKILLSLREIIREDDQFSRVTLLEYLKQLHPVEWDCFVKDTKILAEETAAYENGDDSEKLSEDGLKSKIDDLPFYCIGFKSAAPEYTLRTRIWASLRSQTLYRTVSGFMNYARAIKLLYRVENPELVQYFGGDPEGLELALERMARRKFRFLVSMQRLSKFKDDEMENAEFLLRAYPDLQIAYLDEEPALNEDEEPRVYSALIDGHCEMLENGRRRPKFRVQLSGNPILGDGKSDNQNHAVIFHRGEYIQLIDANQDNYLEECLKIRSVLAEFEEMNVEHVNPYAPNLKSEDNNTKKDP

Nakaseomyces glabratus = test: Antifungal activity against Candida glabrata C624 by broth dilution method; format: functional; details: read-out: MIC100
Candida albicans = test: Antifungal activity against Candida albicans C693 by broth dilution method; format: functional; details: for MIC: read-out: MIC100
[1] = AUC (0 to 6 hrs) in rat at 10 mg/kg, po administered with methylcellulose; format: ADME, organism-based; set-up: time < 6 hr, dose 10 mg/kg, route oral; details: in vivo
Aspergillus fumigatus = test: Antifungal activity against Aspergillus fumigatus ND158 by broth dilution method; format: functional; details: read-out: MEC
[2] = AUC (0 to 8 hrs) in dog at 2 mg/kg, po administered with methylcellulose and HPBCD; format: ADME, organism-based, Canis lupus familiaris; set-up: time < 8 hr, dose 2 mg/kg, route oral; details: in vivo
Cytochrome P450 3A4 = Cytochrome P450 3A4 (Homo sapiens, UniProt P08684); test: Inhibition of CYP3A4 at 30 uM; format: ADME
Cytochrome P450 2D6 = Cytochrome P450 2D6 (Homo sapiens, UniProt P10635); test: Inhibition of CYP2D6 at 30 uM; format: ADME
hERG (KCNH2) = hERG (KCNH2) (Homo sapiens, UniProt Q12809); test: Inhibition of human ERG at 1 uM by patch clamp assay
Hepatocyte [3] = test: Clearance in human hepatocytes measured per molar mass of cells; format: ADME, cell-based, Liver
[4] = Clearance in dog hepatocytes measured per molar mass of cells; format: ADME, cell-based, Canis lupus familiaris, Liver, Hepatocyte
Cytochrome P450 2C9 = Cytochrome P450 2C9 (Homo sapiens, UniProt P11712); test: Inhibition of CYP2C9 at 30 uM; format: ADME
Candida glabrata [5] = test: Antifungal activity against Candida glabrata C624 infected in immunocompromized mouse assessed as log10 reduction in CFU in kidney at 30 mg/kg, poqd for seven days (reference value: 4.28 log10 CFU)
Candida glabrata [6] = test: Antifungal activity against Candida glabrata C624 infected in immunocompromized mouse assessed as log10 reduction in CFU in kidney at 10 mg/kg, poqd for seven days (reference value: 4.28 log10 CFU)
Hepatocyte [7] = test: Clearance in rat hepatocytes measured per molar mass of cells; format: ADME, cell-based, Liver

Chain of hERG (KCNH2) (Q12809 whole entry): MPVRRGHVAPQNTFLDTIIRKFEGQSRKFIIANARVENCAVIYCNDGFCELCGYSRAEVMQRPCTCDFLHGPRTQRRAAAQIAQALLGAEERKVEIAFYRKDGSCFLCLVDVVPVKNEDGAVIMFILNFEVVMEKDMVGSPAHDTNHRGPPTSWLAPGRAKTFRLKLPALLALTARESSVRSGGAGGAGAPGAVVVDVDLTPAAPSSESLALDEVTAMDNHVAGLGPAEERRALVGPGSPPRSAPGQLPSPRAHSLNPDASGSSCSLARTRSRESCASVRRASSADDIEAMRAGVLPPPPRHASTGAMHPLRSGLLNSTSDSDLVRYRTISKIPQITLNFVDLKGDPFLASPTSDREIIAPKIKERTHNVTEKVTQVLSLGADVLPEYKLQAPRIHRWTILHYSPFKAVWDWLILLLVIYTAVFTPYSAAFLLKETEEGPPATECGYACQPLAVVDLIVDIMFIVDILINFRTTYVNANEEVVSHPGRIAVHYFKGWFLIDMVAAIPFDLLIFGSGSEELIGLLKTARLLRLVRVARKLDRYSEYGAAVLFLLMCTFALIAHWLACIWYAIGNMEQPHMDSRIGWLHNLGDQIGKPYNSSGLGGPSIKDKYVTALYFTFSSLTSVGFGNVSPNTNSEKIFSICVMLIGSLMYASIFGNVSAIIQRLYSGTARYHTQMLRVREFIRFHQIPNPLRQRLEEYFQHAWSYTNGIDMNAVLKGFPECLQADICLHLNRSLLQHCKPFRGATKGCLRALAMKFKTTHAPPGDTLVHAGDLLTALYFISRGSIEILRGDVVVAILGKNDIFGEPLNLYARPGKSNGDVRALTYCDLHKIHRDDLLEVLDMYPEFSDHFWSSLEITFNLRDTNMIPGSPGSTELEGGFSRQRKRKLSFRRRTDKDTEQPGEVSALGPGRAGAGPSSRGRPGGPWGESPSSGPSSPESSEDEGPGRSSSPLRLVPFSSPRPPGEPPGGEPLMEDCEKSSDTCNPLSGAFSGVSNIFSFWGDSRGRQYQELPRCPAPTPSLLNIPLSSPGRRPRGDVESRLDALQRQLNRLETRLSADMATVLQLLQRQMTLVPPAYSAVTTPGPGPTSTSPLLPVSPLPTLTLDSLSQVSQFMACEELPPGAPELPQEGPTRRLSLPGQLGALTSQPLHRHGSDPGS
Chain of Cytochrome P450 2C9 (P11712 whole entry): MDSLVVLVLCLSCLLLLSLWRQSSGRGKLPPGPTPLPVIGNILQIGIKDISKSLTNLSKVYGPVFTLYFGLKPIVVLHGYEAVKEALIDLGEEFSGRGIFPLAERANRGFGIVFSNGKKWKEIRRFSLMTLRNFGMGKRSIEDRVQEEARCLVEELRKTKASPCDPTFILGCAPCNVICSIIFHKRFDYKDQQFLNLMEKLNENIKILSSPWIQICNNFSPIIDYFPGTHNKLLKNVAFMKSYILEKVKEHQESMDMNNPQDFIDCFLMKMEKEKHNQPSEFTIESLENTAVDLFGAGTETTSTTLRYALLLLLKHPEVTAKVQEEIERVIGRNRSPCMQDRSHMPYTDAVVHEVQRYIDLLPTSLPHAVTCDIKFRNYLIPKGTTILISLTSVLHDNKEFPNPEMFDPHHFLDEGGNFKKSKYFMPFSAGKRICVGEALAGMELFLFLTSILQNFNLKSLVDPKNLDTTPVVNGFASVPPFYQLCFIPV
Chain of Cytochrome P450 3A4 (P08684 whole entry): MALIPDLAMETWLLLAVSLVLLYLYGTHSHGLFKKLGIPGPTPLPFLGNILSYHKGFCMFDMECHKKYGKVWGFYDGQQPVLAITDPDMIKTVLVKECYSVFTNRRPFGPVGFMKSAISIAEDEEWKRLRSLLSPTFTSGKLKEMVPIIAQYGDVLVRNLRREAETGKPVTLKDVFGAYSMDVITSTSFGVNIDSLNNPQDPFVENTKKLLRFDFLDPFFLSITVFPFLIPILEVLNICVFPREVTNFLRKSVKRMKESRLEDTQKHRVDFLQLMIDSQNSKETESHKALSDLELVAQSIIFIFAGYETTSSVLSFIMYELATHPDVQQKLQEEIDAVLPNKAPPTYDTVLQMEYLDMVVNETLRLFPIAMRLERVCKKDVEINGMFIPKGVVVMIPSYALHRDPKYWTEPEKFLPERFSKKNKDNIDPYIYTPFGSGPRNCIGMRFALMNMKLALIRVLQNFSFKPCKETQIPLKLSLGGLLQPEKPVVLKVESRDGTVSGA
Chain of Cytochrome P450 2D6 (P10635 whole entry): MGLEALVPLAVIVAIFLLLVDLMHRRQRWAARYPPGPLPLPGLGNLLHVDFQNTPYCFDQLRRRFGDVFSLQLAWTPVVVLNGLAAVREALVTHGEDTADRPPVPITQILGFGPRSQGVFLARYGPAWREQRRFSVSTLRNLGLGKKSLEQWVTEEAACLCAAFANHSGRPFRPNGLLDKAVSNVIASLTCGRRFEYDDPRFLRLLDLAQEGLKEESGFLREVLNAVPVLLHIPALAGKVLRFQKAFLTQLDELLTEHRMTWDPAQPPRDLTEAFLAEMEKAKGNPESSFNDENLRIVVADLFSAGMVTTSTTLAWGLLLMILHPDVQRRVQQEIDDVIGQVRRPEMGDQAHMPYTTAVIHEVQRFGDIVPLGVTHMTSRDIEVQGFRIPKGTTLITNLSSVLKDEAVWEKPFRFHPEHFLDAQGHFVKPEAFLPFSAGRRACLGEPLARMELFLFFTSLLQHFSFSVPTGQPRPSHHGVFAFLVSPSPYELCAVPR

| Structure (SMILES) | pIC50 (Beta-1,3-glucan synthase) | MIC (Nakaseomyces glabratus) [µg/mL] | MIC (Candida albicans) [µg/mL] | other results |
| --- | --- | --- | --- | --- |
| O=c1c(OC2CCCC2)c(N2CCN(S(=O)(=O)c3ccccn3)CC2)cnn1-c1ccccc1 | 5.57 | 0.63 (≈ 1.31 µM) | 5 (≈ 10.4 µM) | – |
| CS(=O)(=O)N1CCN(c2cnn(-c3ccccc3)c(=O)c2OC2CCCC2)CC1 | 5.28 | 0.63 (≈ 1.51 µM) | > 20 | – |
| O=c1c(N2CCOCC2)c(N2CCN(S(=O)(=O)Cc3ccccc3)CC2)cnn1-c1ccccc1 | 5.03 | 0.39 (≈ 0.787 µM) | > 50 | – |
| O=c1c(C2CCCCC2)c(N2CCN(S(=O)(=O)Cc3ccccc3)CC2)cnn1-c1ccccc1 | 5.35 | > 20 | > 20 | – |
| O=c1c(OC2CCCCC2)c(N2CCN(S(=O)(=O)Cc3ccccc3)CC2)cnn1-c1ccccc1 | 5.98 | 0.05 (≈ 0.0983 µM) | 0.78 (≈ 1.53 µM) | – |
| O=c1c(OC2CCCC2)c(N2CCN(S(=O)(=O)Cc3ccccc3)CC2)cnn1-c1ccccc1 | 6.44 | 0.03 (≈ 0.0607 µM) | 0.26 (≈ 0.526 µM) | – |
| CCOCCCNc1c(N2CCN(S(=O)(=O)Cc3ccccc3)CC2)cnn(-c2ccccc2)c1=O | 5.35 | 0.78 (≈ 1.52 µM) | > 50 | – |
| CCCCCCCc1c(N2CCN(S(=O)(=O)Cc3ccccc3)CC2)cnn(-c2ccccc2)c1=O | 5.53 | 0.78 (≈ 1.53 µM) | > 50 | – |
| CCCCCCCOc1c(N2CCN(S(=O)(=O)Cc3ccccc3)CC2)cnn(-c2ccccc2)c1=O | 6.64 | < 0.1 | 0.78 (≈ 1.49 µM) | – |
| CCOCCOc1c(N2CCN(S(=O)(=O)Cc3ccccc3)CC2)cnn(-c2ccccc2)c1=O | 5.74 | 0.1 (≈ 0.201 µM) | 3.1 (≈ 6.22 µM) | – |
| CCCCCCCSc1c(N2CCN(S(=O)(=O)Cc3ccccc3)CC2)cnn(-c2ccccc2)c1=O | 5.69 | 0.78 (≈ 1.44 µM) | – | MIC50 (Candida albicans): 3.1 µg/mL (≈ 5.73 µM) |
| CCCCCCC[S+]([O-])c1c(N2CCN(S(=O)(=O)Cc3ccccc3)CC2)cnn(-c2ccccc2)c1=O (stereo not drawn) | 5.27 | 0.59 (≈ 1.06 µM) | 25 (≈ 44.9 µM) | – |
| CCCCCCCS(=O)(=O)c1c(N2CCN(S(=O)(=O)Cc3ccccc3)CC2)cnn(-c2ccccc2)c1=O | < 4.76 | 1.6 (≈ 2.79 µM) | > 50 | – |
| CC1CN(S(=O)(=O)Cc2ccccc2)CCN1c1cnn(-c2ccccc2)c(=O)c1OC1CCCCC1 (stereo not drawn) | 5.38 | 0.39 (≈ 0.746 µM) | 6.3 (≈ 12.1 µM) | – |
| C[C@@H]1CN(c2cnn(-c3ccccc3)c(=O)c2OC2CCCCC2)CCN1S(=O)(=O)Cc1ccccc1 | 5.27 | 0.78 (≈ 1.49 µM) | – | MIC50 (Candida albicans): 19 µg/mL (≈ 36.4 µM) |
| C[C@H]1CN(c2cnn(-c3ccccc3)c(=O)c2OC2CCCCC2)CCN1S(=O)(=O)Cc1ccccc1 | 5.08 | 0.39 (≈ 0.746 µM) | – | MIC50 (Candida albicans): 2 µg/mL (≈ 3.83 µM) |
| O=c1c(OC2CCCCC2)c(N2CC3CC2CN3S(=O)(=O)Cc2ccccc2)cnn1-c1ccccc1 (stereo not drawn) | < 4.72 | > 50 | > 50 | – |
| O=c1c(OC2CCCC2)c(N2CCN(S(=O)(=O)Cc3ccccn3)CC2)cnn1-c1ccccc1 | 5.92 | 0.06 (≈ 0.121 µM) | 8.4 (≈ 16.9 µM) | – |
| O=c1c(OC2CCCC2)c(N2CCN(S(=O)(=O)Cc3cccnc3)CC2)cnn1-c1ccccc1 | 6.39 | 0.13 (≈ 0.262 µM) | 8.4 (≈ 16.9 µM) | – |
| O=c1c(OC2CCCC2)c(N2CCN(S(=O)(=O)c3ccccc3)CC2)cnn1-c1ccccc1 | < 4.68 | 0.15 (≈ 0.312 µM) | – | MIC50 (Candida albicans): 0.78 µg/mL (≈ 1.62 µM) |
| CC(C)S(=O)(=O)N1CCN(c2cnn(C3CCCCC3)c(=O)c2OC2CCCC2)CC1 | 4.71 | 0.78 (≈ 1.72 µM) | > 50 | – |

The next lines start with results.

| pIC50 (Beta-1,3-glucan synthase) | MIC (Nakaseomyces glabratus) [µg/mL] | MIC (Candida albicans) [µg/mL] | Structure (SMILES) | other results |
| --- | --- | --- | --- | --- |
| 5.42 | 0.2 (≈ 0.448 µM) | – | CC(C)S(=O)(=O)N1CCN(c2cnn(-c3ccccc3)c(=O)c2OC2CCCC2)CC1 | AUC(0-t) at 6 h [1]: 1600 ng·h/mL; MIC50 (Candida albicans): 25 µg/mL (≈ 56 µM) |
| 4.87 | 1.6 (≈ 3.57 µM) | > 50 | CC(C)S(=O)(=O)N1CCN(c2cnn(-c3cccnc3)c(=O)c2OC2CCCC2)CC1 | – |
| < 4.66 | 8.4 (≈ 18.5 µM) | > 20 | CC(C)S(=O)(=O)N1CCN(c2cnn(-c3nccs3)c(=O)c2OC2CCCC2)CC1 | – |
| 5.67 | 0.1 (≈ 0.215 µM) | 6.3 (≈ 13.6 µM) | CC(C)S(=O)(=O)N1CCN(c2cnn(-c3cccc(F)c3)c(=O)c2OC2CCCC2)CC1 | AUC(0-t) at 6 h [1]: 670 ng·h/mL; minimal effective concentration (Aspergillus fumigatus): 1.6 µg/mL |
| 5.97 | 0.1 (≈ 0.208 µM) | 3.1 (≈ 6.44 µM) | CC(C)S(=O)(=O)N1CCN(c2cnn(-c3cccc(Cl)c3)c(=O)c2OC2CCCC2)CC1 | AUC(0-t) at 6 h [1]: 490 ng·h/mL |
| 5.89 | 0.4 (≈ 0.829 µM) | 6.3 (≈ 13.1 µM) | CC(C)S(=O)(=O)N1CCN(c2cnn(-c3cc(F)cc(F)c3)c(=O)c2OC2CCCC2)CC1 | – |
| 6.30 | 0.06 (≈ 0.12 µM) | 6.3 (≈ 12.6 µM) | CC(C)S(=O)(=O)N1CCN(c2cnn(-c3cc(F)cc(Cl)c3)c(=O)c2OC2CCCC2)CC1 | AUC(0-t) at 6 h [1]: 490 ng·h/mL |
| 6.30 | 0.2 (≈ 0.388 µM) | 3.1 (≈ 6.01 µM) | CC(C)S(=O)(=O)N1CCN(c2cnn(-c3cc(Cl)cc(Cl)c3)c(=O)c2OC2CCCC2)CC1 | – |
| 5.71 | 2.5 (≈ 5.4 µM) | > 20 | CC(C)S(=O)(=O)N1CCN(c2cnn(-c3cccc(O)c3)c(=O)c2OC2CCCC2)CC1 | – |
| 5.39 | 25 (≈ 54.2 µM) | > 50 | CC(C)S(=O)(=O)N1CCN(c2cnn(-c3cccc(N)c3)c(=O)c2OC2CCCC2)CC1 | – |
| 5.66 | 0.78 (≈ 1.56 µM) | 6.3 (≈ 12.6 µM) | CC(C)S(=O)(=O)N1CCN(c2cnn(-c3cccc(F)c3)c(=O)c2OC2CCC(F)(F)C2)CC1 (stereo not drawn) | AUC(0-t) at 6 h [1]: 470 ng·h/mL; minimal effective concentration (Aspergillus fumigatus): 3.1 µg/mL |
| 5.94 | 0.05 (≈ 0.0964 µM) | 12.5 (≈ 24.1 µM) | CC(C)S(=O)(=O)N1CCN(c2cnn(-c3cc(F)cc(F)c3)c(=O)c2OC2CCC(F)(F)C2)CC1 (stereo not drawn) | AUC(0-t) at 6 h [1]: 440 ng·h/mL; minimal effective concentration (Aspergillus fumigatus): 3.1 µg/mL |
| 6.06 | 0.13 (≈ 0.269 µM) | 16.7 (≈ 34.6 µM) | CC(C)S(=O)(=O)N1CCN(c2cnn(-c3cccc(F)c3)c(=O)c2OC2CCC(F)C2)CC1 (racemic) | AUC(0-t) at 6 h [1]: 300 ng·h/mL; minimal effective concentration (Aspergillus fumigatus): 4.2 µg/mL |
| 5.91 | 0.1 (≈ 0.2 µM) | 6.3 (≈ 12.6 µM) | CC(C)S(=O)(=O)N1CCN(c2cnn(-c3cc(F)cc(F)c3)c(=O)c2OC2CCC(F)C2)CC1 (racemic) | AUC(0-t) at 6 h [1]: 2100 ng·h/mL; minimal effective concentration (Aspergillus fumigatus): 1.6 µg/mL; AUC(0-t) at 8 h [2]: 3500 ng·h/mL; inhibition (INH) (Cytochrome P450 3A4): Not Active; inhibition (INH) (Cytochrome P450 2D6): Not Active; inhibition at 1 µM (hERG (KCNH2)): 22%; CL (Hepatocyte [3]): 1 µL/min; CL [4]: 1.7 µL/min; inhibition (INH) (Cytochrome P450 2C9): Not Active; log10cfu (Candida glabrata [5]): 1.3; log10cfu (Candida glabrata [6]): 4.16; CL (Hepatocyte [7]): 2.4 µL/min |
